Measurements from ChEMBL document CHEMBL3751713, “Synthesis and Biological Activity of Mono- and Di-N-acylated Aminoglycosides” (ACS Med Chem Lett, 2015).
In brackets after ≈: the same amount, converted by molar mass.

Experiments:
[1] = target: T1, Aminoglycoside 3'-phosphotransferase (Escherichia coli, UniProt P00551); assay: Drug metabolism assessed as Escherichia coli APH(3')-Ia-mediated compound modification at 100 uM; format: ADME
T1 sequence (P00551 whole entry): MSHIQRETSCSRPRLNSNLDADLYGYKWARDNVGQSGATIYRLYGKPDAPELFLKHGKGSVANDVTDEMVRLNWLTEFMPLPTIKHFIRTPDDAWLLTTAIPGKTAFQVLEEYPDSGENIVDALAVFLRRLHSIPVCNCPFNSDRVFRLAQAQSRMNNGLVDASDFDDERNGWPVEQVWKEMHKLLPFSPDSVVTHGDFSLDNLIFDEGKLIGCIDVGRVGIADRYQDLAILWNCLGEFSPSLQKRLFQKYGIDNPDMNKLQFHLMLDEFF

Bacillus subtilis = assay: Antimicrobial activity against Gram-positive Bacillus subtilis 168 after 16 to 24 hrs by micro-dilution method; format: functional
[2] = Drug metabolism assessed as Escherichia coli AAC(3)-IV mediated compound modification at 100 uM; format: ADME
Listeria monocytogenes = assay: Antimicrobial activity against Gram-positive Listeria monocytogenes ATCC 19115 after 16 to 24 hrs by micro-dilution method; format: functional
[3] = test system: Mycolicibacterium smegmatis; assay: Antimicrobial activity against Mycobacterium smegmatis MC2-155 after 16 to 24 hrs by micro-dilution method; format: functional; details: str. MC2 155
[4] = Drug metabolism assessed as Mycobacterium tuberculosis Eis mediated compound modification at 100 uM; format: ADME
Bacillus cereus = assay: Antimicrobial activity against Gram-positive Bacillus cereus ATCC 17788 after 16 to 24 hrs by micro-dilution method; format: functional
Staphylococcus aureus [5] = assay: Antimicrobial activity against Gram-positive methicillin-resistant Staphylococcus aureus 1 after 16 to 24 hrs by micro-dilution method; format: functional
[6] = Drug metabolism assessed as Staphylococcus aureus Bifunctional AAC(6')-1e/APH(2'')-1a mediated compound modification at 100 uM; format: ADME
Haemophilus influenzae = assay: Antimicrobial activity against Gram-negative Haemophilus influenzae ATCC 51907 after 16 to 24 hrs by micro-dilution method; format: functional
Bacillus anthracis [7] = assay: Antimicrobial activity against Gram-positive Bacillus anthracis str. Sterne after 16 to 24 hrs by micro-dilution method; format: functional
Pseudomonas aeruginosa = assay: Antimicrobial activity against Gram-negative Pseudomonas aeruginosa PAO1 after 16 to 24 hrs by micro-dilution method; format: functional
Staphylococcus aureus [8] = assay: Antimicrobial activity against Gram-positive Staphylococcus aureus ATCC 29213 after 16 to 24 hrs by micro-dilution method; format: functional
Staphylococcus aureus [9] = assay: Antimicrobial activity against Gram-positive methicillin-resistant Staphylococcus aureus 2 after 16 to 24 hrs by micro-dilution method; format: functional
Bacillus anthracis [10] = assay: Potency index, ratio MIC of kanamycin to MIC of compound for Bacillus anthracis str. Sterne; format: functional
[11] = test system: Mycolicibacterium smegmatis; assay: Potency index, ratio MIC of tobramycin to MIC of compound for Mycobacterium smegmatis MC2-155; format: functional, str. MC2 155
Bacillus anthracis [12] = assay: Potency index, ratio MIC of tobramycin to MIC of compound for Bacillus anthracis str. Sterne; format: functional

For `N[C@H]1[C@H](O)[C@H](O[C@@H]2[C@@H](O)[C@H](O[C@@H]3O[C@@H](CNC(=O)OCc4ccccc4)[C@H](O)C[C@@H]3N)[C@@H](N)C[C@H]2N)O[C@@H](CO)[C@@H]1O` (stereo in doubt), the Drug metabolism [1] was “metabolite_notdetected”, the MIC (Bacillus subtilis) was > 150 µg/mL and the Drug metabolism [2] was “metabolite_detected”. The MIC (Listeria monocytogenes) was > 150 µg/mL, the MIC [3] was 16 µg/mL (≈ 26.6 µM) and the Drug metabolism [4] was “metabolite_detected”. The MIC (Bacillus cereus) was > 150 µg/mL, the MIC (Staphylococcus aureus [5]) was > 128 µg/mL and the Drug metabolism [6] was “metabolite_detected”. The MIC (Haemophilus influenzae) was 75 µg/mL (≈ 125 µM), the MIC (Bacillus anthracis [7]) was 64 µg/mL (≈ 106 µM) and the MIC (Pseudomonas aeruginosa) was > 150 µg/mL. For the same molecule, the MIC (Staphylococcus aureus [8]) was 128 µg/mL (≈ 213 µM) and the MIC (Staphylococcus aureus [9]) was > 128 µg/mL.
In the case of `CN[C@@H]1[C@@H](O)[C@@H](O[C@@H]2[C@@H](O)[C@H](O[C@H]3OC(CNC(=O)CN)=CC[C@H]3N)[C@@H](N)C[C@H]2N)OC[C@]1(C)O`, the Drug metabolism [1] was “metabolite_notdetected”, the MIC (Bacillus subtilis) was 37.5 µg/mL (≈ 74.3 µM) and the Drug metabolism [2] was “metabolite_detected”. The MIC (Listeria monocytogenes) was 18.8 µg/mL (≈ 37.3 µM), the MIC [3] was 0.5 µg/mL (≈ 0.991 µM) and the Drug metabolism [4] was “metabolite_detected”. The MIC (Bacillus cereus) was 75 µg/mL (≈ 149 µM), the MIC (Staphylococcus aureus [5]) was 8 µg/mL (≈ 15.9 µM) and the Drug metabolism [6] was “metabolite_detected”. The MIC (Haemophilus influenzae) was 37.5 µg/mL (≈ 74.3 µM), the MIC (Bacillus anthracis [7]) was ≤ 0.25 µg/mL and the MIC (Pseudomonas aeruginosa) was 18.8 µg/mL (≈ 37.3 µM). For the same molecule, the MIC (Staphylococcus aureus [8]) was 1 µg/mL (≈ 1.98 µM) and the MIC (Staphylococcus aureus [9]) was 2 µg/mL (≈ 3.96 µM).
For `NCC[C@@H](O)C(=O)NC[C@H]1O[C@H](O[C@@H]2[C@@H](O)[C@H](O[C@@H]3O[C@@H](CO)[C@H](O)[C@@H](N)[C@@H]3O)[C@@H](NC(=O)[C@@H](O)CCN)C[C@H]2N)[C@H](O)[C@@H](O)[C@@H]1O` (stereo in doubt), the Drug metabolism [1] was “metabolite_notdetected”, the MIC (Bacillus subtilis) was > 150 µg/mL and the Drug metabolism [2] was “metabolite_detected”. For the same molecule, the MIC (Listeria monocytogenes) was 150 µg/mL (≈ 218 µM), the MIC [3] was 8 µg/mL (≈ 11.6 µM) and the Drug metabolism [4] was “metabolite_detected”. For the same molecule, the MIC (Bacillus cereus) was 150 µg/mL (≈ 218 µM), the MIC (Staphylococcus aureus [5]) was > 128 µg/mL and the Drug metabolism [6] was “metabolite_detected”. For the same molecule, the MIC (Haemophilus influenzae) was > 150 µg/mL, the MIC (Bacillus anthracis [7]) was > 128 µg/mL and the MIC (Pseudomonas aeruginosa) was 75 µg/mL (≈ 109 µM). The MIC (Staphylococcus aureus [8]) was 128 µg/mL (≈ 186 µM) and the MIC (Staphylococcus aureus [9]) was > 128 µg/mL.
With `NC[C@H]1O[C@H](O[C@H]2[C@H](O)[C@@H](O[C@H]3O[C@H](CO)[C@@H](O)[C@H](N)[C@H]3O)[C@H](N)C[C@@H]2N)[C@H](O)[C@@H](O)[C@@H]1O` [KANAMYCIN] the MIC (Bacillus subtilis) was > 150 µg/mL, the MIC (Listeria monocytogenes) was 4.7 µg/mL (≈ 9.7 µM) and the MIC [3] was > 128 µg/mL. The MIC (Bacillus cereus) was 9.4 µg/mL (≈ 19.4 µM), the MIC (Staphylococcus aureus [5]) was > 128 µg/mL and the MIC (Haemophilus influenzae) was 9.4 µg/mL (≈ 19.4 µM). For the same molecule, the MIC (Bacillus anthracis [7]) was > 128 µg/mL, the MIC (Pseudomonas aeruginosa) was 37.5 µg/mL (≈ 77.4 µM) and the MIC (Staphylococcus aureus [8]) was 0.5 µg/mL (≈ 1.03 µM). The MIC (Staphylococcus aureus [9]) was > 128 µg/mL.
With `NCC(=O)NC[C@H]1O[C@H](O[C@H]2[C@H](O)[C@@H](O[C@H]3O[C@H](CO)[C@@H](O)[C@H](N)[C@H]3O)[C@H](N)C[C@@H]2N)[C@H](O)[C@@H](O)[C@@H]1O` the MIC (Bacillus subtilis) was > 150 µg/mL, the Drug metabolism [2] was “metabolite_detected” and the MIC (Listeria monocytogenes) was 150 µg/mL (≈ 277 µM). For the same molecule, the MIC [3] was > 128 µg/mL, the Drug metabolism [4] was “metabolite_detected” and the MIC (Bacillus cereus) was 150 µg/mL (≈ 277 µM). The MIC (Staphylococcus aureus [5]) was > 128 µg/mL, the Drug metabolism [6] was “metabolite_detected” and the MIC (Haemophilus influenzae) was 150 µg/mL (≈ 277 µM). The MIC (Bacillus anthracis [7]) was 2 µg/mL (≈ 3.69 µM), the Ratio (Bacillus anthracis [10]) was 64 and the MIC (Pseudomonas aeruginosa) was > 150 µg/mL. For the same molecule, the MIC (Staphylococcus aureus [8]) was 16 µg/mL (≈ 29.5 µM) and the MIC (Staphylococcus aureus [9]) was > 128 µg/mL.
In the case of `CCN[C@@H]1C[C@H](N)[C@@H](O[C@H]2OC(CNC(=O)CN)=CC[C@H]2N)[C@H](O)[C@H]1O[C@H]1OC[C@](C)(O)[C@H](NC)[C@H]1O`, the Drug metabolism [1] was “metabolite_notdetected”, the MIC (Bacillus subtilis) was 37.5 µg/mL (≈ 70.4 µM) and the Drug metabolism [2] was “metabolite_detected”. The MIC (Listeria monocytogenes) was 18.8 µg/mL (≈ 35.3 µM), the MIC [3] was 1 µg/mL (≈ 1.88 µM) and the Drug metabolism [4] was “metabolite_detected”. The MIC (Bacillus cereus) was 75 µg/mL (≈ 141 µM), the MIC (Staphylococcus aureus [5]) was 32 µg/mL (≈ 60.1 µM) and the Drug metabolism [6] was “metabolite_detected”. For the same molecule, the MIC (Haemophilus influenzae) was 37.5 µg/mL (≈ 70.4 µM), the MIC (Bacillus anthracis [7]) was 0.5 µg/mL (≈ 0.939 µM) and the MIC (Pseudomonas aeruginosa) was 37.5 µg/mL (≈ 70.4 µM). The MIC (Staphylococcus aureus [8]) was 0.5 µg/mL (≈ 0.939 µM) and the MIC (Staphylococcus aureus [9]) was 1 µg/mL (≈ 1.88 µM).
In the case of `NCC(=O)NC[C@H]1O[C@H](O[C@H]2[C@H](O)[C@@H](O[C@H]3O[C@H](CO)[C@@H](O)[C@H](N)[C@H]3O)[C@H](N)C[C@@H]2N)[C@H](N)C[C@@H]1O`, the Drug metabolism [1] was “metabolite_notdetected”, the MIC (Bacillus subtilis) was 75 µg/mL (≈ 143 µM) and the Drug metabolism [2] was “metabolite_detected”. For the same molecule, the MIC (Listeria monocytogenes) was 18.8 µg/mL (≈ 35.8 µM), the Ratio [11] was “>=32” and the MIC [3] was 4 µg/mL (≈ 7.63 µM). The Drug metabolism [4] was “metabolite_detected”, the MIC (Bacillus cereus) was 18.8 µg/mL (≈ 35.8 µM) and the MIC (Staphylococcus aureus [5]) was 4 µg/mL (≈ 7.63 µM). For the same molecule, the Ratio (Bacillus anthracis [12]) was 128, the Drug metabolism [6] was “metabolite_detected” and the MIC (Haemophilus influenzae) was 75 µg/mL (≈ 143 µM). The MIC (Bacillus anthracis [7]) was 0.5 µg/mL (≈ 0.953 µM), the MIC (Pseudomonas aeruginosa) was 18.8 µg/mL (≈ 35.8 µM) and the MIC (Staphylococcus aureus [8]) was 8 µg/mL (≈ 15.3 µM). The MIC (Staphylococcus aureus [9]) was 128 µg/mL (≈ 244 µM).
